Reference: US20240342156A1, “METHODS FOR TREATING PAIN” (Xenon Pharmaceuticals Inc., priority 2019, published 2024)

Tests used:
[1] = test system: rat spinal nerve ligation (SNL)/Chung model of neuropathic pain; experiment: Spinal nerve ligation (SNL)/Chung model, tactile allodynia, electronic von Frey test on lesioned paw; format: in vivo
Experimental: (§1) Objective: The efficacy of Compound A was assessed using the rat spinal nerve ligation (SNL)/Chung model of neuropathic pain. The SNL model in rats was developed as described previously (Chung J M, Kim H K, Chung K. “Segmental spinal nerve ligation model of neuropathic pain.” Methods Mol. Med. 99 (2004) 35-45).
(§2) Study Design. Briefly, on Day 0, von Frey and cold plate tests were used for baseline measurements of tactile and cold allodynia respectively. Post-baseline measurements, rats (171-209 g male Sprague Dawley) were anesthetized and an incision at the L4-S2 level was performed to expose the left L5 nerve. A ligature was tied tightly around the L5 nerve (Chung et al.; R. Dost et al., “The anti-hyperalgesic activity of Retigabine is mediated by KCNQ potassium channel activation.” Naunyn-Schmiedeberg's Arch. Pharmacol. 369 (2004) 382-390; Gordon Blackburn-Munro et al., “The anticonvulsant retigabine attenuates nociceptive behaviors in rat models of persistent and neuropathic pain.” Eur. J Pharmacol. 460 (2003) 109-116; and Wu Y J et al., “Discovery of (S,E)-3-(2-fluorophenyl)-N-(1-(3-(pyridin-3-yloxy)phenyl)ethyl)-acrylamide as a potent and efficacious KCNQ2 (Kv7.2) opener for the treatment of neuropathic pain.” Bioorg Med. Chem. Lett. 23 (2013) 6188-91). The wound was then sutured and the rats were allowed to recover. On Day 13, post-surgery baselines for tactile and cold allodynia were measured to verify neuropathic pain. Animals were assigned to treatment groups based on the post-surgery baseline score.
(§3) Dosing: For efficacy testing, Compound A was dosed orally once a day for 5 consecutive days from Day 14-18.
Rats were placed under an inverted acrylic plastic box on a grid floor. The tip of an electronic von Frey probe was then applied with increasing force to the surgery hind paw and the force required to induce paw-withdrawal was automatically recorded. The procedure was carried out 3 times and the mean paw withdrawal force was calculated. The experimenter was double blinded to treatment.

[2] = test system: rat spinal nerve ligation (SNL)/Chung model of neuropathic pain; experiment: Spinal nerve ligation (SNL)/Chung model, thermal allodynia, cold plate test on lesioned paw; format: in vivo
Experimental: as §1
Study Design. Briefly, on Day 0, von Frey and cold plate tests were used for baseline measurements of tactile and cold allodynia respectively. Post-baseline measurements, rats (171-209 g male Sprague Dawley) were anesthetized and an incision at the L4-S2 level was performed to expose the left L5 nerve. […] The wound was then sutured and the rats were allowed to recover. On Day 13, post-surgery baselines for tactile and cold allodynia were measured to verify neuropathic pain. Animals were assigned to treatment groups based on the post-surgery baseline score.
as §3
The cold plate apparatus was maintained at 4±1° C. and was surrounded by an acrylic glass enclosure. Rats were placed on the plate for a period of 5 minutes. The latency to 1st paw-withdrawal, total number of paw withdrawals, and total duration of withdrawal responses were recorded for the surgery hind paw.

[3] = Body weight of SNL rats over the duration of testing; format: in vivo, rat
Experimental: as §2, §3

[4] = Day 14, test 1 h after administration, 128 mg/kg p.o.
[5] = Day 18, test 1 h after administration, 128 mg/kg p.o. once on Day 14 and on Day 18
[6] = Day 18 at 2 h, 20 mg/kg p.o. once daily Day 14-18

CN1CC[C@]23c4c5ccc(O)c4O[C@H]2[C@@H](O)C=C[C@H]3[C@H]1C5.Cl [Morphine, Morphine hydrochloride, reference compound]
Force inducing paw-withdrawal (g), Delta from baseline compared with Vehicle (p.o.), Δ [1, 4]: +27.4 g | Force inducing paw-withdrawal (g), Delta from baseline, Mean ± s.e.m. [1, 4]: +27.7 ± 5.6 g | Force inducing paw-withdrawal (g), Mean ± s.e.m. [1, 4]: 50.6 ± 5.0 g | Force inducing paw-withdrawal (g), Delta from baseline compared with Vehicle (p.o.), Δ [1, 5]: +24.3 g | Force inducing paw-withdrawal (g), Delta from baseline, Mean ± s.e.m. [1, 5]: +27.1 ± 4.6 g | Force inducing paw-withdrawal (g), Mean ± s.e.m. [1, 5]: 50.0 ± 4.5 g | Latency to first paw-withdrawal (s), Mean ± s.e.m. [2, 4]: 201.3 ± 35.8 s | Latency to first paw-withdrawal, compared with Vehicle (p.o.), Δ% [2, 4]: +55% | Number of withdrawal responses, Mean ± s.e.m. [2, 4]: 7.9 ± 2.8 | Number of withdrawal responses, compared with Vehicle (p.o.), Δ% [2, 4]: −22% | Latency to first paw-withdrawal (s), Mean ± s.e.m. [2, 5]: 235.8 ± 33.2 s | Latency to first paw-withdrawal, compared with Vehicle (p.o.), Δ% [2, 5]: +150% | Number of withdrawal responses, Mean ± s.e.m. [2, 5]: 4.6 ± 2.8 | Number of withdrawal responses, compared with Vehicle (p.o.), Δ% [2, 5]: −58% | Body weight (g) (mean ± s.e.m.) ([3]; Day 14, 128 mg/kg p.o. once on Day 14 and on Day 18): 295.9 ± 4.6 g | Body weight (g) (mean ± s.e.m.) ([3]; Day 15, 128 mg/kg p.o. once on Day 14 and on Day 18): 312.8 ± 5.5 g | Body weight (g) (mean ± s.e.m.) ([3]; Day 16, 128 mg/kg p.o. once on Day 14 and on Day 18): 302.0 ± 5.4 g | Body weight (g) (mean ± s.e.m.) ([3]; Day 17, 128 mg/kg p.o. once on Day 14 and on Day 18): 298.9 ± 5.4 g | Body weight (g) (mean ± s.e.m.) ([3]; Day 18, 128 mg/kg p.o. once on Day 14 and on Day 18): 306.7 ± 5.2 g

CCOC(=O)Nc1ccc(NCc2ccc(F)cc2)cc1N [Retigabine, reference compound]
Force inducing paw-withdrawal (g), Delta from baseline compared with Vehicle (p.o.), Δ ([1]; Day 14 at 2 h, 20 mg/kg p.o.): +4.0 g | Force inducing paw-withdrawal (g), Delta from baseline, Mean ± s.e.m. ([1]; Day 14 at 2 h, 20 mg/kg p.o.): +4.0 ± 2.2 g | Force inducing paw-withdrawal (g), Mean ± s.e.m. ([1]; Day 14 at 2 h, 20 mg/kg p.o.): 26.5 ± 2.5 g | Force inducing paw-withdrawal (g), Delta from baseline compared with Vehicle (p.o.), Δ [1, 6]: +6.4 g | Force inducing paw-withdrawal (g), Delta from baseline, Mean ± s.e.m. [1, 6]: +9.2 ± 2.1 g | Force inducing paw-withdrawal (g), Mean ± s.e.m. [1, 6]: 31.8 ± 2.2 g | Latency to first paw-withdrawal (s), Mean ± s.e.m. ([2]; Day 14 at 2 h, 20 mg/kg p.o.): 272.7 ± 20.1 s | Latency to first paw-withdrawal, compared with Vehicle (p.o.), Δ% ([2]; Day 14 at 2 h, 20 mg/kg p.o.): +110% | Number of withdrawal responses, Mean ± s.e.m. ([2]; Day 14 at 2 h, 20 mg/kg p.o.): 1.5 ± 1.3 | Number of withdrawal responses, compared with Vehicle (p.o.), Δ% ([2]; Day 14 at 2 h, 20 mg/kg p.o.): −85% | Total duration of withdrawal responses (s), Mean ± s.e.m. ([2]; Day 14 at 2 h, 20 mg/kg p.o.): 0.3 ± 0.3 s | Total duration of withdrawal responses, compared with Vehicle (p.o.), Δ% ([2]; Day 14 at 2 h, 20 mg/kg p.o.): −86% | Latency to first paw-withdrawal (s), Mean ± s.e.m. [2, 6]: 209.3 ± 36.1 s | Latency to first paw-withdrawal, compared with Vehicle (p.o.), Δ% [2, 6]: +122% | Number of withdrawal responses, Mean ± s.e.m. [2, 6]: 3.4 ± 1.3 | Number of withdrawal responses, compared with Vehicle (p.o.), Δ% [2, 6]: −69% | Total duration of withdrawal responses (s), Mean ± s.e.m. [2, 6]: 27.3 ± 23.5 s | Total duration of withdrawal responses, compared with Vehicle (p.o.), Δ% [2, 6]: +153% | Body weight (g) (mean ± s.e.m.) ([3]; Day 14, 20 mg/kg p.o. once daily Day 14-18): 300.8 ± 4.8 g | Body weight (g) (mean ± s.e.m.) ([3]; Day 15, 20 mg/kg p.o. once daily Day 14-18): 312.6 ± 5.1 g | Body weight (g) (mean ± s.e.m.) ([3]; Day 16, 20 mg/kg p.o. once daily Day 14-18): 321.1 ± 5.2 g | Body weight (g) (mean ± s.e.m.) ([3]; Day 17, 20 mg/kg p.o. once daily Day 14-18): 330.6 ± 5.3 g | Body weight (g) (mean ± s.e.m.) ([3]; Day 18, 20 mg/kg p.o. once daily Day 14-18): 336.8 ± 5.7 g
